Here are results for two molecules from US9173898B2, “Methods of treating giardiasis” (THE UNITED STATES OF AMERICA, as represented by the …, priority 2010, dated 2015).

Molecules are shown by their SMILES. pEC50, pIC50: −log10 of the molar value. Values after ≈ are worked out from the molar mass of the structure shown. Read-outs that look alike come from different tables or passages of the source. Bounds are passed on as bounds.

One assay relates to Giardia WB. In words: Giardia viability (ATP content) assay in 1536-well format. The class given is cell-based, Giardia lamblia. The settings on record: Giardia; for pEC50: 1536-well (FIG. 2a), read-out: Calculated EC50. How it is done:
(§1) For the viability assay in 1536-well format, 2 μL media was dispensed per well into 1536-well white solid-bottom plates using a Multidrop Combi dispenser (Thermo Scientific). Subsequently, 23 nL/well compound solutions or DMSO controls were dispensed to the assay plates containing media via a pintool workstation (Kalypsys, San Diego). Trophozoites were chilled on ice to detach from glass tubes, and unless otherwise noted, were diluted to 250,000 trophozoites/mL with ice cold media. The trophozoite suspension was kept on ice and dispensed as 4 μL/well with the Multidrop Combi dispenser. Attachment of trophozoites to dispensing apparatus was avoided with continuous dispensing and icing of the trophozoite suspension. The plates were covered with plastic low-evaporation lids, individually sealed in Type A Bio-Bags and incubated at 37° C. for 48 hours. Following incubation, 4 μL/well of ATPLite reagent was dispensed with the Multidrop Combi dispenser. The assay plates were briefly centrifuged at 1000 RPM and luminescence signal was detected on a ViewLux plate reader (PerkinElmer) after 20 min incubation at room temperature. Signal-to-basal (S/B) ratio, Z′ factor and coefficient of variation (CV) were calculated from 32 wells with 0.38% DMSO (total signal) and 32 well with 38.3 μM Mnz (basal signal).
Assay miniaturization in 1,536-well plate format was undertaken to increase throughput and facilitate screening of large compound libraries. The volume of trophozoites suspension was reduced to 6 μL/well and the ATP detection reagent was reduced to 4 μL/well in the 1536-well assay plates. […] The 100 trophozoites/well density was selected for further experiments to reduce the preparation work of Giardia cultures. Following these conditions, a DMSO test plate was used to assess the statistical parameters of the assay in the 1,536-well plate format.
Using the above established conditions in 1536-well format, each compound of the invention was tested at 5 concentration points, ranging from 61 nM-38.3 μM in a 1:5 dilution ratio (Inglese, J., D. S. Auld, A. Jadhav, R. L. Johnson, A. Simeonov, A. Yasgar, W. Zheng, and C. P. Austin. 2006. Quantitative high-throughput screening: a titration-based approach that efficiently identifies biological activities in large chemical libraries. Proc Natl Acad Sci USA 103:11473-8).

The test system of assay [1] is Giardia lamblia GS isolate. In words: Trophozoite enumeration assay. The format is cell-based. The settings on record: Giardia duodenalis; G. lamblia GS isolate; 48 hrs, cell counting in hemocytometer. How it is done: Giardia lamblia GS isolate was plated into sterile 96-well black clear-bottom assay plates at 10,000 cells/well density and 120 μL/well volume in culture media. Compounds tested were prepared as 50 mM DMSO solutions in a 12 point 1:3 titration series in DMSO, with exceptions being carbadox, Bortezomib and BTO-1, which were used at 10 mM top concentration due to solubility limitations. Compound titration series were added to duplicate assay wells as 0.5 μL/well and the assay plates were incubated anaerobically in Type A Bio-Bag (BD Diagnostics) for 48 hrs at 37° C. Cell density was visually scored in each well and the 6 wells surrounding the visually determined IC50 concentrations were quantitated by cell counting. For enumeration, trophozoites were detached on ice for 30 min and resuspended via pipetting. 75 μL of culture was removed from each well, mixed with 65 μL of 0.4% Trypan Blue and 10 μL of 30% bleach (final concentration of 2% bleach) to immobilize trophozoites. Trophozoites were then counted in a hemocytometer.

Assay [2] has as its system Giardia lamblia GS isolate. In words: Minimum Lethal Concentration (MLC) determination. The format is cell-based. The note with it: Giardia duodenalis, 72 h; 3 days with compound, then 3 days regrowth without compound; tube without any live organisms. The protocol:
Giardia lamblia GS isolate was used throughout the Minimal Lethal Concentration (MLC) experiments. Organisms were grown and maintained in TYI-S-33 medium supplemented with bile and antibiotics (Keister, 1983). Cidal activity was determined in 96-well culture plates (Corning Incorporated) followed by Giardia trophozoites regrowth in 8 ml tubes (Fisher Scientific). Dry compounds were dissolved in DMSO (Sigma) at stock concentration of 10 mM and then added to the growth media to ensure final DMSO concentration of no more than 0.5%. 100 μl of the compound solutions were placed in the wells by serial dilutions. 10 μl of Giardia trophozoites containing 10000 organisms were then added. Serial dilutions of metronidazole served as the positive control and the DMSO-containing medium served as the negative control. Plates were incubated under anaerobic conditions in sealed bags (Becton Dickinson and Company) at 37° C. for 3 days and surveyed visually under microscope to check survival, mobility and attachment of trophozoites. The plate was chilled on ice for 30 min and the entire contents of 4 wells in the growth/death transition were transferred into the 8 ml tubes containing growth media only (without the compound). After 3 days of incubation at 37° C., tubes were checked under microscope for any surviving trophozoites. MLC was attributed to the tube without any live organisms. See, e.g., Keister, D. B. 1983. Axenic culture of Giardia lamblia in TYI-S-33 medium supplemented with bile. Trans. Soc. Trop. Med. Hyg. 77:487-488.

In another assay the test system is G. lamblia GS isolate. In words: ATP content assay against G. lamblia GS isolate. The format is cell-based, Giardia lamblia. The note with it: for pIC50: Giardia duodenalis. The protocol:
as §1
As a further confirmatory step, some compounds that were commercially available were purchased as powder samples and tested against the G. lamblia GS isolate using both the ATP content and enumeration assays (Table 3).

In assay [3] the test system is G. lamblia WB trophozoite. As to the kind of experiment: Giardia viability (ATP content) assay in 96-well format. The class given is cell-based, Giardia lamblia. How it is done: Giardia trophozoites were plated at a density of 2500 cells/well in 120 μL media in sterile 96-well black clear-bottom assay plates. Mnz was serially diluted from 100 mM stock solution 1:4 in DMSO and then 0.5 μL/well of Mnz titrations or DMSO control were transferred in duplicates to the assay wells using a multichannel pipette. The assay plates were covered with plastic low-evaporation lids and individually sealed with anaerobic generators (Type A Bio-Bag, BD Diagnostics) to create anaerobic growth environment. The sealed Bio-Bags were incubated at 37° C. for indicated periods. Following incubation, 80 μL/well of the ATPLite reagent (PerkinElmer) was added to the assay plates for one-step lysis and ATP level detection. The plates were centrifuged briefly (1000 RPM, 30 seconds) and incubated at room temperature for 20 min. The luminescent signals of assay plates were measured on a ViewLux plate reader (PerkinElmer). Signal-to-basal (S/B) ratios and Z′ factors were calculated from 8 wells containing 0.42% DMSO (total signal) and 8 wells containing 41.7 μM Mnz (basal signal).
A commercially available ATP detection kit to measure the viability of G. lamblia after compound treatment. […] The DMSO tolerance of trophozoites was assessed in this assay as DMSO is used to dissolve the compounds in the library. […]

For assay [4], the system named is CHO cells. As to the kind of experiment: CHO cell cytotoxicity assay in 1536-well format (ATP content counter-screen). The format is cell-based, Chinese hamster. The note with it: Cricetulus griseus, CHO, 48 h; percent reduction in ATP levels compared with 38.3 µM camptothecin at maximal compound concentration; read-out: CHO Efficacy. Background: A counterscreen serves to expose hits that act by an unwanted route or on another target.

Assay [5] relates to CHO cells. The description is as above. The class given is cell-based, Chinese hamster. The settings on record: Cricetulus griseus, CHO; concentration at which 50% of DMSO control ATP levels are detected; 48 hours. How it is done:
For the viability assay in 1536-well format, 2 μL media was dispensed per well into 1536-well white solid-bottom plates using Multidrop Combi dispenser. Subsequently, 23 nL/well compound solutions or DMSO controls were dispensed to the assay plates via a pintool workstation. The Chinese hamster ovary (CHO) cells were grown in T225 flasks to 70% confluence under a standard cell culture condition (ATCC), detached with 0.25% Trypsin/EDTA, and seeded at 250 cells/well in 4 μL media (Dulbecco's Modified Eagle Medium, 10% fetal bovine serum, 1× penicillin/streptomycin). The plates were incubated at 37° C. with 5% CO2 and 95% humidity for 48 hours. Subsequently, ATP content was measured following the addition of 4 μL/well of ATPLite reagent and a 20 min incubation on a ViewLux plate reader.
Data from the CHO cell counter-screen underwent the same initial analysis, with the exception that raw luminescence counts were normalized relative to DMSO only wells (0% activity) and 38.3 μM camptothecin treated wells (100% activity).
CHO cells, commonly used in high throughput compound screening, were selected to determine the cytotoxicity of the compounds towards a mammalian cell line.

Setting [6] is: G. lamblia GS isolate, purchased powder samples.
The mark [7] stands for this setting: G. lamblia GS isolate, purchased powder samples, read-out: ATP Content IC50.

One may read the pEC50 as the EC50 on a negative log10 scale, so that one unit is a factor of ten. Usually pIC50 stands for −log10 of the IC50, conventionally taken in molar units. A word on the MBC: it is the lowest tested concentration that kills the bacteria rather than only halting them.

With `Cc1ncc([N+](=O)[O-])n1CCO` [Metronidazole], the pEC50 was 5.54 in the assay with Giardia WB (100 cells/well Giardia density), 5.54 in the assay on Giardia WB (200 cells/well Giardia density) and 5.68 with Giardia WB (300 cells/well Giardia density). The pIC50 in assay [1] was 5.66; in the assay on G. lamblia GS isolate (setting [7]), 5.80; in assay [3] (Giardia duodenalis, 96-well format, 48 hr (FIG. 1c), read-out: IC50 of inhibition of the ATP content signal), 5.68. Further, the MBC in assay [2] came out at 7.7 µM (≈ 1.32 µg/mL). The “ATP Content Efficacy” value in the assay on G. lamblia GS isolate (setting [6]) is reported as 99.7%. In addition, the “ATP content relative to DMSO control values” in assay [3] (41.7 μM Mnz treatment, all time points tested (FIG. 1a)) was less than 5%.

In the case of `Nc1ncn([C@H]2C[C@H](O)[C@@H](CO)O2)c(=O)n1` [Decitabine, 5-Aza-2′-deoxycytidine], the Emax in the assay on CHO cells [4] is -52.2%; in the assay with Giardia WB (48 h, percent reduction in ATP levels compared with 38.3 mM Mnz at maximal compound concentration, read-out: Giardia WB Efficacy), 81.2%. Moreover, the pIC50 with Giardia WB (concentration at which 50% of DMSO control ATP levels are detected, 48 hours, 1536-well) is 6.01; in assay [1], 7.15; in the assay on G. lamblia GS isolate (setting [7]) it was 6.82; with G. lamblia GS isolate (Table 2, screen, read-out: Giardia GS IC50), 7.00; in the assay on CHO cells [5] it was 4.61. The MBC in assay [2] was determined as 2.6 µM (≈ 0.593 µg/mL). Also, the “ATP Content Efficacy” value in the assay on G. lamblia GS isolate (setting [6]) was determined as 95.1%.
